Laboratory results as given in US11844866B2, “Gastroretentive extended release dosage form” (Novelstar Pharmaceuticals, Inc., priority 2020, dated 2023).
Like-named read-outs stand apart in the source and are kept apart here.

Legend:
[1] = previously reported dosage form; cited from earlier work
[2] = on storage and in vivo; cited from earlier work
[3] = cited from earlier work
[4] = slightly soluble; cited from earlier work
[5] = Solubility of Tofacitinib citrate in different pH media and water; assay type: physicochemical; conditions: 37 °C, read-out: Solubility @37° C., mg/mL for 6 hours
Method: The active substance is a white to off-white solid, slightly soluble in water (2.9 mg/mL) and non-hygroscopic. Tofacitinib contains two chiral centers at C3 and C4. The active substance is the enantiomer with absolute configuration (R) for both the C-3 and the C-4 positions. The overall stereochemistry of tofacitinib is therefore considered as critical and is assured by the quality of the starting materials and the route of synthesis design.
Polymorphism has been studied for the active substance. The crystalline citrate salt, Form A, has been the sole development form of the active substance used in all toxicology and clinical studies. The solubility Tofacitinib citrate is pH dependent, the solubility is decried with pH increasing. […] The pH dependent solubility can lead to pH-dependent in vivo drug release from sustained release matrices. Drug release varies as a function of movement through segments of the gastrointestinal tract with different pH. […] The Tofacitinib citrate gastric retention drug delivery system that would provide the highest bioavailability are very desirable because the drug active has highest solubility in the stomach.

[6] = API stability studies (stress, long term, accelerated; enantiomer interconversion); assay type: physicochemical
Excerpt: Polymorphism has been observed for Apremilast and seven polymorphic forms (designated A-G) of the active substance were identified.
An amorphous form generally provides better solubility and bioavailability than the crystalline form and may be useful for formulations which can have better solubility, and compressibility etc. which are important for formulation and product manufacturing.

API particle size (d90) = assay type: physicochemical; conditions: API particles

**Q.** With `CCOc1cc([C@@H](CS(C)(=O)=O)N2C(=O)c3cccc(NC(C)=O)c3C2=O)ccc1OC` [Apremilast, (+) enantiomer of 2-[1-(3-ethoxy-4-methoxyphenyl)-2-methanesulfonylethyl]-4-acetylaminoisoindolin-1,3-dione] as the compound, how does the “share of absorption taking place in the proximal small bowel” value [1] read?
**A.** about 93%

**Q.** And the “interconversion of (S)-enantiomer to (R)-enantiomer” value [2]?
**A.** no interconversion

**Q.** And the “solubility in aqueous buffers” value ([3]; irrespective of pH range)?
**A.** practically insoluble

**Q.** What about the “Biopharmaceutical Classification System class” value ([3]; low solubility and low permeability) of the same compound?
**A.** BCS Class 4

**Q.** What does the source list for `C[C@@H]1CCN(C(=O)CC#N)C[C@@H]1N(C)c1ncnc2[nH]ccc12.O=C(O)CC(O)(CC(=O)O)C(=O)O` [Tofacitinib citrate, 3-((3R,4R)-4-methyl-3-(methyl(7H-pyrrolo[2,3-d]pyrimidin-4 yl)amino)piperidin-1-yl)-3-oxopropanenitrile, 2-hydroxypropane-1,2,3-tricarboxylic acid]?
**A.** solubility in water [4]: 2900 µg/mL; solubility at 6 h ([5]; pH 1.18, simulated gastric fluid, thermodynamic from solid, 0.1N HCl, final pH observed 1.18): 27.8 mg/mL; solubility at 6 h ([5]; pH 4.9, thermodynamic from solid, Water, final pH observed 4.90): 2.9 mg/mL; solubility at 6 h ([5]; pH 4.5 medium, aqueous buffer, thermodynamic from solid, pH 4.5, final pH observed 4.50): 4.57 mg/mL; solubility at 6 h ([5]; pH 6.8 medium, aqueous buffer, thermodynamic from solid, pH 6.8, final pH observed 6.78): 2.03 mg/mL

**Q.** Which “stability after exposing to different stress test conditions” value ([6]; stress test conditions) does the source give for `CCOc1cc([C@@H](CS(C)(=O)=O)N2C(=O)c3cccc(NC(C)=O)c3C2=O)ccc1OC` [Apremilast Form B] here?
**A.** stable

**Q.** What about the “particle size d90” value (API particle size (d90)) of the same compound?
**A.** 8 μm

**Q.** What does the source list for `CCOc1cc([C@@H](CS(C)(=O)=O)N2C(=O)c3cccc(NC(C)=O)c3C2=O)ccc1OC` [Apremilast amorphous]?
**A.** stability after 6 months ([6]; stress conditions, long term 25° C./60% RH and accelerated 40° C./75% RH): stable; particle size d90 (API particle size (d90); listed as Apremilast amorphous form): 22 μm
